Data from US7265125B2, “Neuropeptide Y antagonists” (Hoffmann-La Roche Inc., priority 2000, dated 2007).

Columns and labels:
[1] = target: T1, mouse NPY5-receptor (mNPY5) (Mus musculus, UniProt O70342); assay: Radioligand competition binding; conditions: HEK293 membranes expressing recombinant mNPY5; 100 pM [125I]labelled peptide YY; 1 h at 22° C.
T1 construct: The full-length cDNA encoding the mouse NPY5 (mNPY5) receptor was amplified from mouse brain cDNA; expressed in transfected cells; membrane preparation
T1 sequence (O70342 1-466): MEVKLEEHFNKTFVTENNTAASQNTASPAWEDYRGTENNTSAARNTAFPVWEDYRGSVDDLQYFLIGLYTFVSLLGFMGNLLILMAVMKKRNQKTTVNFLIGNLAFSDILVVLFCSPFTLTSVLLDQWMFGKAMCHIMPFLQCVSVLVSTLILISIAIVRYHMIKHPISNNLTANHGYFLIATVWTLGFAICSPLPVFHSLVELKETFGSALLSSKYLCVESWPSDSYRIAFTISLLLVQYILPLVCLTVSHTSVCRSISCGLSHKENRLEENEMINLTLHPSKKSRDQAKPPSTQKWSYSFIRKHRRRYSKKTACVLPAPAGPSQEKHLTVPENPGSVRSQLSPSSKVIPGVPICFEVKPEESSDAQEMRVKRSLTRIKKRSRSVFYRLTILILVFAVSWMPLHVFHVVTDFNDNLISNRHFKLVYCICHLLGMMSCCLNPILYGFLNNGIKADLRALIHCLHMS
From the text: The full-length cDNA encoding the mouse NPY5 (mNPY5) receptor was amplified from mouse brain cDNA using specific primers, designed based on the published sequence, and Pfu DNA-Polymerase (Stratagene). The amplification product was subcloned into the mammalian expression vector pcDNA3 using Eco RI and XhoI restriction sites. Positive clones were sequenced and one clone, encoding the published sequence was selected for generation of stable cell clones.
Human embryonic kidney 293 (HEK293) cells were transfected with 10 μg mNPY5 DNA using the lipofectamine reagent (Gibco BRL) according to the manufacturer's instruction. Two days after transfection, geneticin selection (1 mg/ml) was initiated and several stable clones were isolated. One clone was further used for pharmacological characterization.
Human embryonic kidney 293 cells (HEK293), expressing recombinant mouse NPY5-receptor (mNPY5) were broken by three freeze/thawing cycles in hypotonic Tris buffer (5 mM, pH 7.4, 1 mM MgCl2), homogenized and centrifuged at 72,000×g for 15 min. The pellet was washed twice with 75 mM Tris buffer, pH 7.4, containing 25 mM MgCl2 and 250 mM sucrose, 0.1 mM phenylmethylsulfonylfluoride and 0.1 mM 1,10-pheneanthrolin, resuspended in the same buffer and stored in aliquots at −80° C. Protein was determined according to the method of Lowry using bovine serum albumine (BSA) as a standard. […]

Row | IC50 [1] [nM] | melting point [°C] | Compound
1 | 60 | – | COc1ccc(-c2ccc3c(N4CCCC4)cc(C)nc3c2)cc1 [Example 1.6, 7-(4-methoxy-phenyl)-2-methyl-4-pyrrolidin-1-yl-quinoline]
2 | – | 122 to 123 | Cc1cc(N2CCCCC2)c2ccc(-c3cccs3)cc2n1 [Example 1.15, 2-methyl-4-piperidin-1-yl-7-thiophen-2-yl-quinoline]
3 | – | 111 to 112 | Cc1cc(N2CCCCC2)c2ccc(-c3ccccc3)cc2n1 [Example 1.16, 2-methyl-7-phenyl-4-piperidin-1-yl-quinoline]
4 | 100 | – | Cc1cc(N2CCCCC2)c2ccc(-c3ccc4[nH]ccc4c3)cc2n1 [Example 1.17, 7-(1H-Indol-5-yl)-2-methyl-4-piperidin-1-yl-quinoline]
